Here are results for eleven compounds from PubChem BioAssay AID1259407 (Chemical Carcinogenesis Research Information System (CCRIS), 2018).

For the data set, the system named is CCRIS mutagenicity, Ames/micronucleus/aberration tests. Briefly: CCRIS mutagenicity studies.
Where [1] appears, read: Test System: AMES SALMONELLA TYPHIMURIUM, Strain/Indicator: TA98, Metabolic Activation: NONE, Method: STANDARD PLATE.
[2] abbreviates: Test System: AMES SALMONELLA TYPHIMURIUM, Strain/Indicator: TA98, Metabolic Activation: RAT, LIVER, S-9, AROCLOR 1254, Method: STANDARD PLATE.
Setting [3] is: Test System: AMES SALMONELLA TYPHIMURIUM, Strain/Indicator: TA100, Metabolic Activation: NONE, Method: STANDARD PLATE.
The mark [4] stands for this setting: Test System: AMES SALMONELLA TYPHIMURIUM, Strain/Indicator: TA100, Metabolic Activation: RAT, LIVER, S-9, AROCLOR 1254, Method: STANDARD PLATE.
Where [5] appears, read: Test System: AMES SALMONELLA TYPHIMURIUM, Strain/Indicator: TA102, Metabolic Activation: NONE, Method: STANDARD PLATE.
Setting [6] is: Test System: AMES SALMONELLA TYPHIMURIUM, Strain/Indicator: TA98, Metabolic Activation: NONE, Method: PREINCUBATION

Structures are written as SMILES. Calls of active or inactive are those of the source. No rule for the calls is given here.

With `CC(C)(C)NC[C@H](O)COc1ccccc1C1CCCC1`, the mutagenic call is “active; positive” under setting [1]; “inactive; negative” under setting [2]; “inactive; negative” under setting [3]; “inactive; negative” under setting [4]; “inactive; negative” under setting [5]; “inactive; negative” (Test System: AMES SALMONELLA TYPHIMURIUM, Strain/Indicator: TA102, Metabolic Activation: RAT, LIVER, S-9, AROCLOR 1254, Method: STANDARD PLATE).

Take `CNC(=O)N(C)C(=O)ON`: the mutagenic call is “active; positive” under setting [1] and “active; positive” under setting [3].

For the compound `Cc1cc(C)c(N)c(C)c1N`, the mutagenic call is “inactive; negative” (Test System: AMES SALMONELLA TYPHIMURIUM, Strain/Indicator: TA97, Metabolic Activation: NONE, Method: STANDARD PLATE); “active; positive” (Test System: AMES SALMONELLA TYPHIMURIUM, Strain/Indicator: TA97, Metabolic Activation: RAT, LIVER, S-9, Method: STANDARD PLATE); “inactive; negative” under setting [1]; “active; positive” (Test System: AMES SALMONELLA TYPHIMURIUM, Strain/Indicator: TA98, Metabolic Activation: RAT, LIVER, S-9, Method: STANDARD PLATE); “active; positive” under setting [3]; “active; positive” (Test System: AMES SALMONELLA TYPHIMURIUM, Strain/Indicator: TA100, Metabolic Activation: RAT, LIVER, S-9, Method: STANDARD PLATE). Besides, the mutagenic call is “active; positive” (Test System: AMES SALMONELLA TYPHIMURIUM, Strain/Indicator: TA1535, Metabolic Activation: NONE, Method: STANDARD PLATE) and “active; positive” (Test System: AMES SALMONELLA TYPHIMURIUM, Strain/Indicator: TA1535, Metabolic Activation: RAT, LIVER, S-9, Method: STANDARD PLATE).

Regarding `[Cl][Mn][Cl]`, the mutagenic call is, setting by setting: under setting [6], “inactive; negative”; (Test System: AMES SALMONELLA TYPHIMURIUM, Strain/Indicator: TA98, Metabolic Activation: RAT LIVER S-9, PHENOBARBITAL AND BETA-NAPHTHOFLAVONE, Method: PREINCUBATION) “inactive; negative”; (Test System: AMES SALMONELLA TYPHIMURIUM, Strain/Indicator: TA100, Metabolic Activation: NONE, Method: PREINCUBATION) “inactive; negative”; (Test System: AMES SALMONELLA TYPHIMURIUM, Strain/Indicator: TA100, Metabolic Activation: RAT LIVER S-9, PHENOBARBITAL AND BETA-NAPHTHOFLAVONE, Method: PREINCUBATION) “inactive; negative”; under setting [5], “active; positive”; (Test System: AMES SALMONELLA TYPHIMURIUM, Strain/Indicator: TA1535, Metabolic Activation: NONE, Method: PREINCUBATION) “inactive; negative”. Also, the mutagenic call (Test System: AMES SALMONELLA TYPHIMURIUM, Strain/Indicator: TA1535, Metabolic Activation: RAT LIVER S-9, PHENOBARBITAL AND BETA-NAPHTHOFLAVONE, Method: PREINCUBATION) was “inactive; negative”; the mutagenic call (Test System: AMES SALMONELLA TYPHIMURIUM, Strain/Indicator: TA1537, Metabolic Activation: NONE, Method: PREINCUBATION) is “inactive; negative”; the mutagenic call (Test System: AMES SALMONELLA TYPHIMURIUM, Strain/Indicator: TA1537, Metabolic Activation: RAT LIVER S-9, PHENOBARBITAL AND BETA-NAPHTHOFLAVONE, Method: PREINCUBATION) is “inactive; negative”; the mutagenic call (Test System: AMES SALMONELLA TYPHIMURIUM, Strain/Indicator: TA1538, Metabolic Activation: NONE, Method: PREINCUBATION) is “inactive; negative”; the mutagenic call (Test System: AMES SALMONELLA TYPHIMURIUM, Strain/Indicator: TA1538, Metabolic Activation: RAT LIVER S-9, PHENOBARBITAL AND BETA-NAPHTHOFLAVONE, Method: PREINCUBATION) is “inactive; negative”; the mutagenic call (Test System: E. COLI, Strain/Indicator: WP2 UVRA, Metabolic Activation: NONE, Method: SPOT TEST) was “inactive; negative”. In addition, the mutagenic call was “inactive; negative” (Test System: E.COLI, Strain/Indicator: WP2UVRA, Metabolic Activation: NONE, Method: PREINCUBATION) and “inactive; negative” (Test System: E.COLI, Strain/Indicator: WP2UVRA, Metabolic Activation: RAT LIVER S-9, PHENOBARBITAL AND BETA-NAPHTHOFLAVONE, Method: PREINCUBATION).

On to `CC1=C2C(=CC(C)(C)[C@@H]2O)C(=O)[C@](C)(O)C12CC2`, for which the mutagenic call under setting [6] is “active; positive”.

As for `O=C(O)/C=C/c1ccc([N+](=O)[O-])o1`, under setting [6], the mutagenic call was “active; positive”.

In the case of `BrCc1ccccc1CBr`, the mutagenic call is “inactive; negative” under setting [1] and “inactive; negative” under setting [3].

`COc1cc(CNC(=O)C(C)Br)ccc1O` (stereo unspecified): under setting [3], the mutagenic call is “active; positive”.

Regarding `COc1cccc(CN2[C@@H]3c4ccccc4-c4ccccc4[C@@H]32)c1` (stereo partly specified), the mutagenic call under setting [3] was “active; positive”.

As to `Cc1cccc2cc3ccccc3cc12`, the mutagenic call is “inactive; negative” under setting [1], “inactive; negative” under setting [2], “inactive; negative” under setting [3] and “inactive; negative” under setting [4].

Turning to `CC1=Cc2nc3c(ccc4ccccc43)c(C)c2[C@H](O)[C@H]1O`, the mutagenic call under setting [4] was “active; positive”.
